Measurements taken from the supplement of paper PMC11061612.

What was measured:
Assay in all cases: Bliss excess, mean over the matrix (fraction); higher = more synergy
[1] = tested on: LU-135 (Small Cell Lung Carcinoma)
Summary of the method: (§1)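 Cell lines in DMEM/F12 or RPMI with 10% FBS were plated in 1536-well plates, held 24 hours at 37°C, 5% CO2, then given two-drug dose matrices for 72 hours (DMSO typically 0.2%). Viability was read by CellTiter-Glo 2.0 luminescence and scaled as inhibition from 0 (vehicle wells) to 1 (blank wells). Combination Emax is the second-highest inhibition in the matrix; Bliss excess is observed combination effect minus expected EA + EB − EA·EB, EA and EB being single-agent effects.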

[2] = tested on: TCCSUP (Bladder Carcinoma)
Summary of the method: as §1

[3] = tested on: TE-15 (Esophageal Squamous Cell Carcinoma)
Summary of the method: as §1

NOS-1 (Osteosarcoma) = tested on: NOS-1 (Osteosarcoma)
Summary of the method: as §1

AGS (Gastric Carcinoma) = tested on: AGS (Gastric Carcinoma)
Summary of the method: as §1

[4] = tested on: SK-ES-1 (Ewing's Sarcoma)
Summary of the method: as §1

[5] = tested on: RO82-W-1 (Thyroid Gland Carcinoma)
Summary of the method: as §1

[6] = tested on: CAL-148 (Breast Carcinoma)
Summary of the method: as §1

[7] = tested on: LNCaP-Clone-FGC (Prostate Carcinoma)
Summary of the method: as §1

[8] = tested on: KP-1N (Pancreatic Carcinoma)
Summary of the method: as §1

[9] = tested on: NCI-H2085 (Non-Small Cell Lung Carcinoma)
Summary of the method: as §1

[10] = tested on: HO-1-N-1 (Oral Cavity Carcinoma)
Summary of the method: as §1

SMILES | Bliss excess [1] | Bliss excess [2] | Bliss excess [3] | Bliss excess (NOS-1 (Osteosarcoma)) | Bliss excess (AGS (Gastric Carcinoma)) | Bliss excess [4] | Bliss excess [5] | Bliss excess [6] | Bliss excess [7] | Bliss excess [8] | Bliss excess [9] | Bliss excess [10]
NC1(C(=O)N[C@@H](CCO)c2ccc(Cl)cc2)CCN(c2ncnc3[nH]ccc23)CC1 [Capivasertib] + CCN(CCO)CCCOc1ccc2c(Nc3cc(CC(=O)Nc4cccc(F)c4)[nH]n3)ncnc2c1 [AZD2811] (first compound max 10 µM, 7x7, partner max 1 µM) | -0.0334 | -0.0397 | -0.0095 | 0.0431 | 0.0129 | -0.0359 | -0.0598 | -0.0142 | 0.006 | -0.0423 | -0.0318 | -0.046
NC1(C(=O)N[C@@H](CCO)c2ccc(Cl)cc2)CCN(c2ncnc3[nH]ccc23)CC1 [Capivasertib] + COc1nnc2ccc(N3CCC(c4ccc(OCCN5CCN(C)C(=O)[C@H]5C)cc4)CC3)nn12 [AZD5153] (first compound max 10 µM, 7x7, partner max 1 µM) | -0.005 | 0.0311 | 0.0642 | 0.0423 | 0.0228 | 0.0815 | -0.0585 | 0.0504 | -0.0071 | 0.0274 | 0.044 | 0.0214
NC1(C(=O)N[C@@H](CCO)c2ccc(Cl)cc2)CCN(c2ncnc3[nH]ccc23)CC1 [Capivasertib] + C[C@@H]1COCCN1C2=NC(=NC(=C2)C3(CC3)[S@](=N)(=O)C)C4=C5C=CNC5=NC=C4 [AZD6738] (first compound max 10 µM, 7x7, partner max 10 µM) | 0.0393 | -0.0312 | -0.0494 | -0.0057 | -0.0449 | -0.0831 | -0.0247 | 0.0222 | 0.0099 | -0.0824 | -0.0192 | -0.0027
NC1(C(=O)N[C@@H](CCO)c2ccc(Cl)cc2)CCN(c2ncnc3[nH]ccc23)CC1 [Capivasertib] + Cn1cnc2c(F)c(Nc3ccc(Br)cc3Cl)c(C(=O)NOCCO)cc21 [Selumetinib] (first compound max 10 µM, 7x7, partner max 10 µM) | 0.0413 | -0.0385 | 0.0234 | -0.019 | 0.0697 | 0.0507 | -0.0063 | 0.0597 | -0.0143 | 0.0357 | 0.0035 | 0.105
Cc1nc(Nc2ncc(C(=O)Nc3c(C)cccc3Cl)s2)cc(N2CCN(CCO)CC2)n1 [Dasatinib] + CC(=O)Nc1cccc(-n2c(=O)n(C3CC3)c(=O)c3c(Nc4ccc(I)cc4F)n(C)c(=O)c(C)c32)c1 [Trametinib] (first compound max 2 µM, 7x7, partner max 1 µM) | -0.0258 | -0.0443 | -0.0414 | 0.0688 | 0.0433 | -0.0256 | -0.0202 | -0.0252 | -0.0361 | 0.0493 | 0.0168 | 0.0676
COc1cccc2c1C(=O)c1c(O)c3c(c(O)c1C2=O)C[C@@](O)(C(=O)CO)C[C@@H]3O[C@H]1C[C@H](N)[C@H](O)[C@H](C)O1 [Doxorubicin] + Cc1cc2ncnn2cc1Nc1ncc2c(n1)n(C1CCOCC1)c(=O)n2C [AZD7648] (first compound max 1 µM, 7x7, partner max 10 µM) | 0.0388 | 0.0282 | 0.0507 | 0.0202 | 0.109 | 0.143 | -0.0346 | 0.165 | 0.0417 | 0.0574 | 0.0299 | 0.0808
COc1cc2ncnc(Nc3ccc(F)c(Cl)c3)c2cc1OCCCN1CCOCC1 [Gefitinib] + CC(C)n1c(=O)n(C)c2cnc3cc(F)c(-c4ccc(OCCCN5CCCCC5)nc4)cc3c21 [AZD1390] (first compound max 10 µM, 7x7, partner max 0.3 µM) | -0.0801 | -0.0593 | -0.0941 | -0.063 | -0.0871 | -0.0733 | -0.0586 | -0.0344 | -0.0491 | -0.0625 | -0.0515 | -0.0506
CS(=O)(=O)CCNCc1ccc(-c2ccc3ncnc(Nc4ccc(OCc5cccc(F)c5)c(Cl)c4)c3c2)o1 [Lapatinib] + C[C@@H](Oc1cc(-c2cnn(C3CCNCC3)c2)cnc1N)c1c(Cl)ccc(F)c1Cl [Crizotinib] (first compound max 10 µM, 7x7, partner max 10 µM) | 0.0255 | -0.0611 | -0.0148 | -0.0114 | 0.0118 | -0.0015 | -0.0392 | -0.0105 | -0.0575 | -0.0435 | -0.0813 | -0.0493
CC(=O)c1c(C)c2cnc(Nc3ccc(N4CCNCC4)cn3)nc2n(C2CCCC2)c1=O [Palbociclib] + CC1(C)CCC(CN2CCN(c3ccc(C(=O)NS(=O)(=O)c4ccc(NCC5CCOCC5)c([N+](=O)[O-])c4)c(Oc4cnc5[nH]ccc5c4)c3)CC2)=C(c2ccc(Cl)cc2)C1 [Venetoclax] (first compound max 10 µM, 7x7, partner max 1 µM) | 0.0482 | -0.0508 | -0.0257 | 0.0157 | -0.0493 | 0.0758 | -0.0825 | -0.0161 | 0.0267 | -0.0396 | -0.0306 | -0.0322
CC(=O)c1c(C)c2cnc(Nc3ccc(N4CCNCC4)cn3)nc2n(C2CCCC2)c1=O [Palbociclib] + Cc1c2c(nn1C)CSCc1cc(n(C)n1)CSc1cc(c3ccccc3c1)OCCCc1c(C(=O)O)n(C)c3c-2c(Cl)ccc13 [AZD5991] (first compound max 10 µM, 7x7, partner max 1 µM) | 0.0165 | -0.0395 | -0.0236 | -0.0006 | -0.04 | -0.0088 | -0.0283 | -0.0063 | 0.0049 | -0.0384 | -0.0374 | -0.0554
CC(=O)c1c(C)c2cnc(Nc3ccc(N4CCNCC4)cn3)nc2n(C2CCCC2)c1=O [Palbociclib] + Cn1cnc2c(F)c(Nc3ccc(Br)cc3Cl)c(C(=O)NOCCO)cc21 [Selumetinib] (first compound max 10 µM, 7x7, partner max 10 µM) | 0.0056 | -0.0438 | 0.0179 | -0.0152 | -0.0123 | -0.0161 | -0.0414 | -0.0462 | 0.0237 | -0.0715 | 0.0018 | 0.0927
COc1cccc(OCCCN)c1-c1cc(Nc2cnc(C#N)cn2)n[nH]1 [Prexasertib] + C=CCn1c(=O)c2cnc(Nc3ccc(N4CCN(C)CC4)cc3)nc2n1-c1cccc(C(C)(C)O)n1 [AZD1775] (first compound max 1 µM, partner max 1 µM) | -0.0004 | 0.0389 | 0.0165 | 0.0924 | 0.195 | 0.0454 | -0.126 | 0.136 | -0.0172 | 0.0763 | 0.124 | 0.104
COc1cccc(OCCCN)c1-c1cc(Nc2cnc(C#N)cn2)n[nH]1 [Prexasertib] + CCc1c2c(nc3ccc(O)cc13)-c1cc3c(c(=O)n1C2)COC(=O)[C@]3(O)CC [SN-38] (first compound max 1 µM, 7x7, partner max 0.3 µM) | -0.0623 | 0.0743 | -0.0275 | 0.0864 | -0.0467 | -0.0081 | 0.0431 | -0.0388 | -0.0782 | 0 | -0.0245 | -0.0054
COc1cccc(OCCCN)c1-c1cc(Nc2cnc(C#N)cn2)n[nH]1 [Prexasertib] + CN(C)CCCOc1ccc(-c2ccc3ncc4c(c3c2)n(C2CCOCC2)c(=O)n4C)cn1 [AZD0156] (first compound max 1 µM, 7x7, partner max 1 µM) | 0.0508 | -0.0021 | -0.0346 | 0.0551 | -0.0052 | 0.0075 | -0.0684 | -0.0115 | -0.0374 | 0.0236 | 0.006 | -0.0077
COc1cccc(OCCCN)c1-c1cc(Nc2cnc(C#N)cn2)n[nH]1 [Prexasertib] + C[C@@H]1COCCN1C2=NC(=NC(=C2)C3(CC3)[S@](=N)(=O)C)C4=C5C=CNC5=NC=C4 [AZD6738] (first compound max 1 µM, 7x7, partner max 10 µM) | 0.0442 | -0.0245 | -0.0395 | 0.0721 | 0.0164 | -0.0132 | 0.005 | 0.0988 | -0.0427 | 0.0331 | -0.0092 | 0.0115
COc1cccc(OCCCN)c1-c1cc(Nc2cnc(C#N)cn2)n[nH]1 [Prexasertib] + Cc1cc2ncnn2cc1Nc1ncc2c(n1)n(C1CCOCC1)c(=O)n2C [AZD7648] (first compound max 1 µM, 7x7, partner max 10 µM) | 0.025 | -0.0182 | -0.0105 | 0.0514 | -0.018 | -0.0257 | -0.058 | 0.0235 | -0.0617 | -0.0207 | -0.0481 | 0.0096
COc1cccc(OCCCN)c1-c1cc(Nc2cnc(C#N)cn2)n[nH]1 [Prexasertib] + O=C(c1cc(Cc2n[nH]c(=O)c3ccccc23)ccc1F)N1CCN(C(=O)C2CC2)CC1 [Olaparib] (first compound max 1 µM, 7x7, partner max 10 µM) | -0.0079 | -0.006 | -0.0427 | 0.0177 | 0.0033 | 0.0008 | -0.0731 | -0.0507 | -0.049 | 0.0018 | -0.208 | 0.0205
COc1cc2c(cc1OCCCCCOc1cc3c(cc1OC)C(=O)N1C=C(C)C[C@H]1C=N3)N=C[C@@H]1CC(C)=CN1C2=O [SG3199] + O=C(c1cc(Cc2n[nH]c(=O)c3ccccc23)ccc1F)N1CCN(C(=O)C2CC2)CC1 [Olaparib] (first compound max 0.001 µM, 7x7, partner max 10 µM) | 0.0232 | -0.0281 | -0.0307 | -0.0275 | -0.0061 | -0.0326 | -0.0704 | -0.0294 | 0.0189 | 0.0163 | -0.0323 | -0.0138
CCc1c2c(nc3ccc(O)cc13)-c1cc3c(c(=O)n1C2)COC(=O)[C@]3(O)CC [SN-38] + CN(C)CCCOc1ccc(-c2ccc3ncc4c(c3c2)n(C2CCOCC2)c(=O)n4C)cn1 [AZD0156] (first compound max 0.3 µM, 7x7, partner max 1 µM) | -0.0201 | 0.0859 | 0.0146 | -0.0111 | -0.0061 | 0.0037 | -0.088 | -0.0174 | -0.0804 | 0.0531 | -0.0026 | 0.0488
